Data: patent US12129267B2, “Heteroaryl amide compounds as sting activators” (Incyte Corporation, priority 2019, dated 2024)

Tested on: IRF3
Assay: IRF3 activation assay in THP-1 Dual Cells
Format: cell-based
Conditions: Homo sapiens, THP1-Dual, 24 hours incubation, QUANTI-Blue readout
Procedure: THP-1 Dual Cells (Invivogen) were maintained in RPMI1640 medium with addition of 10% FBS, 100 μg/mL zeocin, 10 μg/mL blasticidin. Cells were added in a 96-well flat bottom assay plate at 100,000 per well in 100 μL complete RPMI medium. Test compounds were prepared by serial dilution in complete RPMI medium and 100 μL test compounds were transferred to each corresponding well. The assay plate was incubated at 37° C., 5% CO2 for 24 hours. After the overnight incubation, 20 μL of the culture supernatants were collected, followed by addition of 180 μL of QUANTI-Blue (Invivogen) to assess IRF3 activity. The amount of IRF3 activation was assessed by reading the absorbance at 620-655 nm with a microplate reader 2 hours later. The culture supernatant from the untreated THP-1 cells was used as the negative control. To determine the NF-κB activation, another 20 μL of culture supernatant were transferred to a 96-well white plate, followed by addition of 50 μL of Quanti-Luc™ assay solution (Invivogen). The amount of NF-κB activation induced by the test compounds were determined by the luminescence above the untreated control. EC50 determination was performed by fitting the curve of percent control activity versus the log of the compound concentration using the GraphPad Prism 6.0 software.

EC50, < 100 nM:
CCn1nc(C)cc1C(=O)Nc1nc2cc(C(N)=O)c3ccoc3c2n1C/C=C/Cn1c2nc(-c3cc(C)nn3CC)ncc2c2cc(C(N)=O)cc(OC)c21 [Example 1, (E)-1-(4-(6-carbamoyl-2-(1-ethyl-3-methyl-1H-pyrazol-5-yl)-8-methoxy-9H-pyrimido[4,5-b]indol-9-yl)but-2-en-1-yl)-2-(1-ethyl-3-methyl-1H-pyrazole-5-carboxamido)-1H-benzofuro[6,7-d]imidazole-5-carboxamide]
CCn1nc(C)cc1C(=O)Nc1nc2cc(C(N)=O)c3ccoc3c2n1C/C=C/Cn1c2nc(-c3cc(C)nn3CC)ncc2c2cc(C(N)=O)cc(OCCCOC)c21 [Example 2, (E)-1-(4-(6-carbamoyl-2-(1-ethyl-3-methyl-1H-pyrazol-5-yl)-8-(3-methoxypropoxy)-9H-pyrimido[4,5-b]indol-9-yl)but-2-en-1-yl)-2-(1-ethyl-3-methyl-1H-pyrazole-5-carboxamido)-1H-benzofuro[6,7-d]imidazole-5-carboxamide]
CCn1nc(C)cc1C(=O)Nc1nc2cc(C(N)=O)c3ccoc3c2n1C/C=C/Cn1c2nc(-c3cc(C)nn3CC)ncc2c2cc(C(N)=O)cc(OCCCO)c21 [Example 3, (E)-1-(4-(6-carbamoyl-2-(1-ethyl-3-methyl-1H-pyrazol-5-yl)-8-(3-hydroxypropoxy)-9H-pyrimido[4,5-b]indol-9-yl)but-2-en-1-yl)-2-(1-ethyl-3-methyl-1H-pyrazole-5-carboxamido)-1H-benzofuro[6,7-d]imidazole-5-carboxamide]
